From patent US20100216703A1, “Inhibitors of PDE4 and Methods of Use” (THE REGENTS OF THE UNIVERSITY OF CALIFORNIA, priority 2006, published 2010)
“Also recorded” adds a separate entry of the source.

Assays:
[1] = tested on: sciatic nerve crush injury; assay: Sciatic nerve crush injury; format: in vivo, mouse; details: wt nerves 8 days after crush; rolipram 1 mg/kg once daily for 8 d
Description: Animals, sciatic nerve crush, and induction of lung fibrosis p75NTR−/− mice (Lee et al., 1992) and tPA−/− mice (Carmeliet et al., 1994) were in C57B1/6 background and purchased from The Jackson Laboratory. Double p75NTR−/−tPA−/− mice were generated by crossing p75NTR−/− mice with tPA−/− mice. C57B1/6J mice were used as controls. Sciatic nerve crush was performed as described previously (Akassoglou et al., 2000). Lung fibrosis was induced as described previously (Chen et al., 2004). For the rolipram treatments, mice were administered 5 mg/kg rolipram (Calbiochem) before the LPS injection as described previously (Miotla et al., 1998). Mice were killed 4.5 h after LPS or saline administration. For rolipram treatment after sciatic nerve injury, mice were injected with rolipram (1 mg/kg) once daily for 8 d until tissue was harvested and processed for immunostaining. Immunohistochemistry was performed as described in Akassoglou et al. (2002). Primary antibodies were sheep anti-human fibrin(ogen) (1:200; US Biologicals), rabbit anti-human tPA ( 1/300; Molecular Innovations), rabbit anti-p75NTR clone 9651, (1:1,000), goat anti-p75NTR ( 1/200; Santa Cruz Biotechnology, Inc.), rabbit anti-mouse PAI-1 (1:500; a gift from David Loskutoff, Scripps Research Institute, La Jolla, Calif.), and mouse anti-S100 (1:200; Neomarkers). […]

NIH3T3p75NTR cells [2] = assay: Quantification of tPA activity; format: cell-based; details: 10 μM forskolin 16 h; 200 nM KT5720; IBMX; rolipram
Description: Quantification of tPA and uPA activity in SC and fibroblast in lysates and supernatants was performed according to the directions of the activity assay kits from American Diagnostica and Chemicon, respectively. To elevate cAMP cells were treated either with 2 mM db-cAMP (Sigma-Aldrich) or with 10 μM forskolin (Sigma-Aldrich) for 16 h. To block PKA activity, cells were treated with 200 nM KT5720 (Calbiochem).

NIH3T3p75NTR cells [3] = assay: Competitive binding cAMP ELISA; format: cell-based; details: 16 h; PTX 100 ng/ml, IBMX 500 μM, PDE1 inh. 18.7 μM, EHNA 80 μM, trequinsin 100 nM, rolipram 10 μM, PDE5 inh. 23 μM
Description: (§1) […] fibroblasts or 500,000 SCs were lysed in 0.1 N HCl solution and cAMP was measured using a competitive binding cAMP ELISA (Assay Designs). Cells were treated with 100 ng/ml PTX for 16 h. […] Cells were treated with forskolin in the presence of the inhibitors for 1 h. […] For the qualitative and quantitative PKA assay (Promega), cells were treated with 10 μM forskolin for 30 min, lysed in 1% NP-40 buffer with 150 mM NaCl, 50 mM Tris, and 1 mM EGTA, and protein concentration was determined using the Bradford Assay (Bio-Rad Laboratories). 1 μg was loaded into the PKA assay reaction mix according to the manufacturer's protocol (Promega).

CGNs = assay: Intracellular cAMP in cerebellar granule neurons; format: cell-based, mouse
Description: Murine SCs were isolated as described previously (Syroid et al., 2000). NIH3T3 or HEK293 cells were cotransfected either with p75NTR FL, ICD or deletion constructs, and PDE4A5 cDNAs using Lipofectamine 2000 (Invitrogen) as described in the Results section. CGNs were isolated from P10 animals (Yamashita and Tohyama, 2003). CGNs were lysed immediately for co-IP, without plating. siRNA directed against p75NTR (Dharmacon; SMART Pool reagent, Cat. M-080041-00; Cat. M-009340) was transfected into SCs and NIH3T3p75NTR cells using Dharmafect (Dharmacon).
as §1

PDE4 = details: cited from earlier work
[4] = tested on: LPS-induced lung fibrosis; assay: LPS-induced lung fibrosis / acute lung injury; format: in vivo, mouse
Description: Animals, sciatic nerve crush, and induction of lung fibrosis p75NTR−/− mice (Lee et al., 1992) and tPA−/− mice (Carmeliet et al., 1994) were in C57B1/6 background and purchased from The Jackson Laboratory. Double p75NTR−/−tPA−/− mice were generated by crossing p75NTR−/− mice with tPA−/− mice. C57B1/6J mice were used as controls. Sciatic nerve crush was performed as described previously (Akassoglou et al., 2000). Lung fibrosis was induced as described previously (Chen et al., 2004). For the rolipram treatments, mice were administered 5 mg/kg rolipram (Calbiochem) before the LPS injection as described previously (Miotla et al., 1998). Mice were killed 4.5 h after LPS or saline administration. For rolipram treatment after sciatic nerve injury, mice were injected with rolipram (1 mg/kg) once daily for 8 d until tissue was harvested and processed for immunostaining. Immunohistochemistry was performed as described in Akassoglou et al. (2002). Primary antibodies were sheep anti-human fibrin(ogen) (1:200; US Biologicals), rabbit anti-human tPA ( 1/300; Molecular Innovations), rabbit anti-p75NTR clone 9651, (1:1,000), goat anti-p75NTR ( 1/200; Santa Cruz Biotechnology, Inc.), rabbit anti-mouse PAI-1 (1:500; a gift from David Loskutoff, Scripps Research Institute, La Jolla, Calif.), and mouse anti-S100 (1:200; Neomarkers). For immunofluorescence, secondary antibodies were anti-rabbit FITC and anti-goat Cy3 (1:200; Jackson Immunochemicals). Images were acquired with an Axioplan II epifluorescence microscope (Carl Zeiss Microlmaging, Inc.) using dry Plan-Neofluar lenses using 10×0.3 NA, 20×0.5 NA, or 40×0.75 NA objectives equipped with Axiocam HRc digital camera and the Axiovision image analysis system. Immunoblot was performed as described previously (Akassoglou et al., 2002). Antibodies used were rabbit anti-p75NTR clones 9992 and 9651 (1:5,000), mouse anti-fibrin (1:500; Accurate Chemical & Scientific Corp.), rabbit anti-myosin (1:1,000; Sigma-Aldrich), rabbit anti-GAPDH (1:5,000; Abcam) and rabbit anti-PAI-1 (1:5,000; a gift of David Loskutoff). Quantification was performed on the Scion NIH Imaging Software. Fibrin precipitation and quantification from lung tissues was performed exactly as described previously (Ling et al., 2004). RT-PCR was performed as described previously (Akassoglou et al., 2002). Primers for tPA, uPA, and PAI-1 genes were used as described previously (Yamamoto and Loskutoff, 1996). Real-time PCR was performed using the Opticon DNA Engine 2 (MJ Research) and the Quantitect SYBR Green PCR kit (QIAGEN). Results were analyzed with Opticon 2 software using the comparative Ct method as described previously (Livak and Schmittgen, 2001). Data were expressed as ΔΔCt for the tPA gene normalized against GAPDH.

spinal cord injury = details: Nikulina et al., 2004, Pearse et al.; cited from earlier work
Primary CGNs = assay: Myelin inhibition of neurite outgrowth; format: cell-based, mouse; details: 24 hrs, myelin 1 μg/well, poly-D-lysine

Row | Compound | fibrin deposition in the sciatic nerve [1] | tPA activity in NIH3T3p75NTR cells (NIH3T3p75NTR cells [2]) | intracellular cAMP levels in NIH3T3p75NTR cells (NIH3T3p75NTR cells [3]) | intracellular cAMP in p75NTR−/− CGNs (CGNs; p75NTR−/− cells) | intracellular cAMP in wild-type CGNs (CGNs; wild-type cells) | PDE4 isoform selectivity (PDE4; background statement) | IC50 (PDE4) | fibrin deposition in the lung ([4]; 5 mg/kg rolipram before LPS, vs LPS alone) | decrease in fibrin, rolipram vs. control treated wt lungs ([4]; 5 mg/kg rolipram before LPS, killed 4.5 h after LPS) | PAI-1 in the lung after LPS (quantitative PCR of transcripts) ([4]; LPS + rolipram) | PAI-1 transcripts in the lung, rolipram treatment alone ([4]; no LPS) | axonal regeneration and functional recovery (spinal cord injury) | myelin inhibition of neurite outgrowth (Primary CGNs)
1 | COc1ccc(C2CNC(=O)C2)cc1OC1CCCC1 (stereo not shown) [rolipram] | decreased levels of fibrin deposition; also recorded: statistically significant reduction of fibrin deposition; also recorded: reduces fibrin deposition; also recorded: decreases fibrin deposition | increase of tPA levels | increase intracellular levels of cAMP; also recorded: increase levels of cAMP in NIH3T3p75NTR cells to the levels of NIH3T3 cells; also recorded: significantly increases cAMP levels | no significant increase | four-fold increase in intracellular cAMP | […] | […] | decreased in the lung; also recorded: reduces fibrin deposition; also recorded: decreases fibrin deposition | 34% | reduction of LPS-induced PAI-1 upregulation; also recorded: decreases PAI-1 | no effect | […] | –
2 | YGRKKRRQRRRSPLDSQASPGLVLHAGATTSQRRES (listed as Homo sapiens) [peptide 25] | – | – | – | – | – | – | – | – | – | – | – | – | did not overcome myelin inhibition of neurite outgrowth
